According to the supplement of paper PMC10307832:

Columns and labels:
Test in all cases: relative viability (nuclei count vs DMSO), 5 days (fraction); higher = more cells survive
GSK-J4 + Foretinib = compound: CCOC(=O)CCNc1cc(N2CCc3ccccc3CC2)nc(-c2ccccn2)n1 [GSK-J4] + COc1cc2c(Oc3ccc(NC(=O)C4(C(=O)Nc5ccc(F)cc5)CC4)cc3F)ccnc2cc1OCCCN1CCOCC1 [Foretinib] (partner 0.25 µM)
Method in brief: (§1)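 Cells from lung cancer lines were seeded into 1536-well plates and, one day later, dosed by pin tool. Treatments were either a single drug or a fixed dose of an anchor drug with five library-drug doses (not always all listed) in √10 steps. After 5 days, nuclei were stained in a one-step fixation (final 0.05% Triton X-100, 1% formaldehyde, 1 ug/ml Hoechst) and counted on 4× images, and relative viability is the treated-to-vehicle nuclei ratio, as the median of duplicate plates.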

GSK-J4 + Tozasertib = compound: CCOC(=O)CCNc1cc(N2CCc3ccccc3CC2)nc(-c2ccccn2)n1 [GSK-J4] + Cc1cc(Nc2cc(N3CCN(C)CC3)nc(Sc3ccc(NC(=O)C4CC4)cc3)n2)n[nH]1 [Tozasertib] (partner 0.1 µM)
Method in brief: as §1

AZ3146 + Bortezomib = compound: CN1CCC(CC1)OC2=CC(=C(C=C2)NC3=NC=C4C(=N3)N(C(=O)N4C)C5CCCC5)OC [AZ3146] + CC(C)C[C@H](NC(=O)[C@H](Cc1ccccc1)NC(=O)c1cnccn1)B(O)O [Bortezomib] (partner 0.002 µM)
Method in brief: as §1

AZ3146 + Crizotinib = compound: CN1CCC(CC1)OC2=CC(=C(C=C2)NC3=NC=C4C(=N3)N(C(=O)N4C)C5CCCC5)OC [AZ3146] + C[C@@H](Oc1cc(-c2cnn(C3CCNCC3)c2)cnc1N)c1c(Cl)ccc(F)c1Cl [Crizotinib] (partner 1 µM)
Method in brief: as §1

Cell Line UMC-11 has a relative viability (GSK-J4 + Foretinib; first compound 0.5 µM) of 0.896, a relative viability (GSK-J4 + Foretinib; first compound 5 µM) of 1.07 and a relative viability (GSK-J4 + Foretinib; first compound 15.81 µM) of 1.08. For the same cell line, the relative viability (GSK-J4 + Foretinib; first compound 50 µM) was 0.556, the relative viability (GSK-J4 + Tozasertib; first compound 0.5 µM) was 0.189 and the relative viability (GSK-J4 + Tozasertib; first compound 15.81 µM) was 0.176. For the same cell line, the relative viability (GSK-J4 + Tozasertib; first compound 50 µM) was 0.17, the relative viability (AZ3146 + Bortezomib; first compound 0.08 µM) was 0.814 and the relative viability (AZ3146 + Bortezomib; first compound 0.253 µM) was 0.661. The relative viability (AZ3146 + Bortezomib; first compound 0.8 µM) was 0.598, the relative viability (AZ3146 + Bortezomib; first compound 2.53 µM) was 0.675 and the relative viability (AZ3146 + Bortezomib; first compound 8 µM) was 0.635. For the same cell line, the relative viability (AZ3146 + Crizotinib; first compound 0.08 µM) was 0.569, the relative viability (AZ3146 + Crizotinib; first compound 0.253 µM) was 0.636 and the relative viability (AZ3146 + Crizotinib; first compound 0.8 µM) was 0.461. It also gave a relative viability (AZ3146 + Crizotinib; first compound 2.53 µM) of 0.177 and a relative viability (AZ3146 + Crizotinib; first compound 8 µM) of 0.136.
